Results reported in the supplement of paper PMC10627819.

Columns and labels:
B. subtilis 168 [1] = experiment: fitness (endpoint OD595 vs no drug) (fraction); higher = more growth
Procedure, shortened: (§1)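 Cultures at OD595 0.01 were dispensed into 384-well plates in TSB, LB Lennox or CY and incubated at 37 °C. Every 30 min for 14 h, OD595 was read and corrected by the first reading. Fitness is the optical density at entry into stationary phase relative to the robust mean of no-drug control wells, capped at 1.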

S. pneumoniae D39V [2] = experiment: as above
Procedure, shortened: as §1

B. subtilis 168 [3] = experiment: Bliss interaction score (quartile over a dose matrix) (fitness difference); higher = more antagonism (negative = synergy)
Procedure, shortened: (§2)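 The Bliss score subtracts expected fitness, the product of the single-drug fitness values, from observed fitness. Fitness is plate-normalised OD595 at entry into stationary phase, relative to the robust no-drug mean and capped at 1, with single-drug fitness inferred from combinations. Summaries are quartiles over technical, biological and donor/recipient replicates.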

S. aureus DSM 20231 = experiment: as above
Procedure, shortened: as §2

S. aureus Newman = experiment: as above
Procedure, shortened: as §2

S. pneumoniae D39V [4] = experiment: as above
Procedure, shortened: as §2
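For Bliss interaction score (quartile over a dose matrix) in this document: first quartile when negative (synergy) and third quartile when positive (antagonism).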

C[C@H]1COc2c(N3CCN(C)CC3)c(F)cc3c(=O)c(C(=O)O)cn1c23 [Levofloxacin] + COc1c(N2C[C@@H]3CCCN[C@@H]3C2)c(F)cc2c(=O)c(C(=O)O)cn(C3CC3)c12 [Moxifloxacin]
B. subtilis 168 [1], first compound 0.001 µg/mL, one replicate
Settings	fitness
partner 0.0312 µg/mL	0.575
partner 0.0625 µg/mL	0.0212
partner 0.125 µg/mL	0

Settings	fitness
B. subtilis 168 [1], first compound 0.002 µg/mL, partner 0.0312 µg/mL	0.0439
B. subtilis 168 [1], first compound 0.002 µg/mL, partner 0.0625 µg/mL	0.0254
B. subtilis 168 [1], first compound 0.002 µg/mL, partner 0.125 µg/mL	0.0489
B. subtilis 168 [1], first compound 0.0039 µg/mL, partner 0.0312 µg/mL	0.0651
B. subtilis 168 [1], first compound 0.0039 µg/mL, partner 0.0625 µg/mL	0.0551
B. subtilis 168 [1], first compound 0.0039 µg/mL, partner 0.125 µg/mL	0.0554
B. subtilis 168 [1], first compound 0.0078 µg/mL, partner 0.0312 µg/mL	0.0472
B. subtilis 168 [1], first compound 0.0078 µg/mL, partner 0.0625 µg/mL	0.0515
B. subtilis 168 [1], first compound 0.0078 µg/mL, partner 0.125 µg/mL	0.0578
B. subtilis 168 [1], first compound 0.0312 µg/mL, partner 2 µg/mL	0.0397
B. subtilis 168 [1], first compound 0.0312 µg/mL, partner 4 µg/mL	0.0257
B. subtilis 168 [1], first compound 0.0312 µg/mL, partner 8 µg/mL	0.0215
B. subtilis 168 [1], first compound 0.0625 µg/mL, partner 2 µg/mL	0.0387
B. subtilis 168 [1], first compound 0.0625 µg/mL, partner 4 µg/mL	0.0417
B. subtilis 168 [1], first compound 0.0625 µg/mL, partner 8 µg/mL	0.0241
B. subtilis 168 [1], first compound 0.125 µg/mL, partner 2 µg/mL	0.0455
B. subtilis 168 [1], first compound 0.125 µg/mL, partner 4 µg/mL	0.0375
B. subtilis 168 [1], first compound 0.125 µg/mL, partner 8 µg/mL	0.0205
S. pneumoniae D39V [2], first compound 0.1725 µg/mL, partner 0.0037 µg/mL	0.882
S. pneumoniae D39V [2], first compound 0.1725 µg/mL, partner 0.0075 µg/mL	0.848
S. pneumoniae D39V [2], first compound 0.1725 µg/mL, partner 0.015 µg/mL	0.887
S. pneumoniae D39V [2], first compound 0.2 µg/mL, partner 0.005 µg/mL	0.899
S. pneumoniae D39V [2], first compound 0.2 µg/mL, partner 0.01 µg/mL	0.943
S. pneumoniae D39V [2], first compound 0.2 µg/mL, partner 0.02 µg/mL	0.857
S. pneumoniae D39V [2], first compound 0.345 µg/mL, partner 0.0037 µg/mL	0.723
S. pneumoniae D39V [2], first compound 0.345 µg/mL, partner 0.0075 µg/mL	0.69
S. pneumoniae D39V [2], first compound 0.345 µg/mL, partner 0.015 µg/mL	0.738
S. pneumoniae D39V [2], first compound 0.4 µg/mL, partner 0.005 µg/mL	0.842
S. pneumoniae D39V [2], first compound 0.4 µg/mL, partner 0.01 µg/mL	0.85
S. pneumoniae D39V [2], first compound 0.4 µg/mL, partner 0.02 µg/mL	0.77
S. pneumoniae D39V [2], first compound 0.69 µg/mL, partner 0.0037 µg/mL	0.418
S. pneumoniae D39V [2], first compound 0.69 µg/mL, partner 0.0075 µg/mL	0.391
S. pneumoniae D39V [2], first compound 0.69 µg/mL, partner 0.015 µg/mL	0.489

Settings	Bliss interaction score
B. subtilis 168 [3]	0.0308
S. aureus DSM 20231	-0.0852
S. aureus Newman	-0.201
S. pneumoniae D39V [4]	-0.0874

C[C@H]1COc2c(N3CCN(C)CC3)c(F)cc3c(=O)c(C(=O)O)cn1c23 [Levofloxacin] + COc1ccc(C[C@H](N)C(=O)N[C@H]2[C@@H](O)[C@H](n3cnc4c(N(C)C)ncnc43)O[C@@H]2CO)cc1 [Puromycin]
fitness, one replicate
Settings	first compound 0.001 µg/mL	first compound 0.002 µg/mL	first compound 0.0039 µg/mL	first compound 0.2 µg/mL	first compound 0.4 µg/mL	first compound 0.8 µg/mL
B. subtilis 168 [1], partner 0.39 µg/mL	0.961	0.909	0.834	–	–	–
B. subtilis 168 [1], partner 0.78 µg/mL	0.949	0.967	0.884	–	–	–
B. subtilis 168 [1], partner 1.56 µg/mL	0.934	0.909	0.868	–	–	–
S. pneumoniae D39V [2], partner 1 µg/mL	–	–	–	0.828	0.672	0.288
S. pneumoniae D39V [2], partner 2 µg/mL	–	–	–	0.854	0.741	0.309
S. pneumoniae D39V [2], partner 4 µg/mL	–	–	–	0.777	0.628	0.205

fitness
Settings	first compound 0.0312 µg/mL	first compound 0.0625 µg/mL	first compound 0.125 µg/mL	first compound 0.1725 µg/mL	first compound 0.345 µg/mL	first compound 0.69 µg/mL
B. subtilis 168 [1], partner 0.39 µg/mL	0.0269	0.0447	0.0177	–	–	–
B. subtilis 168 [1], partner 0.78 µg/mL	0.0422	0.0467	0.0355	–	–	–
B. subtilis 168 [1], partner 1.56 µg/mL	0.0415	0.0483	0.0409	–	–	–
S. pneumoniae D39V [2], partner 1 µg/mL	–	–	–	0.981	0.919	0.689
S. pneumoniae D39V [2], partner 2 µg/mL	–	–	–	0.944	0.895	0.661
S. pneumoniae D39V [2], partner 4 µg/mL	–	–	–	0.796	0.8	0.599

Settings	Bliss interaction score
B. subtilis 168 [3]	-0.0129
S. aureus DSM 20231	-0.0463
S. aureus Newman	-0.0822
S. pneumoniae D39V [4]	0.0705

C[C@H]1COc2c(N3CCN(C)CC3)c(F)cc3c(=O)c(C(=O)O)cn1c23 [Levofloxacin] + C[n+]1ccc(-c2cc[n+](C)cc2)cc1 [Paraquat]
fitness, one replicate
Settings	first compound 0.001 µg/mL	first compound 0.002 µg/mL	first compound 0.0039 µg/mL	first compound 0.2 µg/mL	first compound 0.4 µg/mL	first compound 0.8 µg/mL
B. subtilis 168 [1], partner 1.25 µg/mL	0.91	0.941	0.829	–	–	–
B. subtilis 168 [1], partner 2.5 µg/mL	0.966	0.876	0.823	–	–	–
B. subtilis 168 [1], partner 5 µg/mL	0.889	0.778	0.766	–	–	–
S. pneumoniae D39V [2], partner 1.5 µg/mL	–	–	–	0.966	0.911	0.615
S. pneumoniae D39V [2], partner 3 µg/mL	–	–	–	0.983	0.939	0.684
S. pneumoniae D39V [2], partner 6 µg/mL	–	–	–	0.994	0.952	0.696

fitness
Settings	first compound 0.0312 µg/mL	first compound 0.0625 µg/mL	first compound 0.125 µg/mL	first compound 0.1725 µg/mL	first compound 0.345 µg/mL	first compound 0.69 µg/mL
B. subtilis 168 [1], partner 1.25 µg/mL	0.0392	0.0443	0.0452	–	–	–
B. subtilis 168 [1], partner 2.5 µg/mL	0.0272	0.0296	0.0268	–	–	–
B. subtilis 168 [1], partner 5 µg/mL	0.0508	0.0462	0.0464	–	–	–
S. pneumoniae D39V [2], partner 1.5 µg/mL	–	–	–	0.977	0.91	0.602
S. pneumoniae D39V [2], partner 3 µg/mL	–	–	–	0.974	0.919	0.647
S. pneumoniae D39V [2], partner 6 µg/mL	–	–	–	0.972	0.849	0.569

Settings	Bliss interaction score
B. subtilis 168 [3]	-0.0255
S. aureus DSM 20231	-0.0517
S. aureus Newman	-0.0586
S. pneumoniae D39V [4]	0.0861
